Assays:
[1] = molecular target: T1, Carbonic anhydrase 9 (Homo sapiens, UniProt Q16790)
Description: Inhibition of human carbonic anhydrase 9 preincubated for 15 mins by stopped flow CO2 hydration method

[2] = molecular target: Carbonic anhydrase 12 (Homo sapiens) (UniProt O43570); conditions: at 0.01 µM
Description: Inhibition of human carbonic anhydrase 12 at 10^-8 M preincubated for 15 mins by stopped flow CO2 hydration method relative to control

[3] = molecular target: Carbonic anhydrase 12 (Homo sapiens) (UniProt O43570); conditions: at 0.1 µM
Description: Inhibition of human carbonic anhydrase 12 at 10^-7 M preincubated for 15 mins by stopped flow CO2 hydration method relative to control

[4] = molecular target: T1, Carbonic anhydrase 9; conditions: at 0.001 µM
Description: Inhibition of human carbonic anhydrase 9 at 10^-9 M preincubated for 15 mins by stopped flow CO2 hydration method relative to control

[5] = molecular target: T1, Carbonic anhydrase 9; conditions: at 0.01 µM
Description: Inhibition of human carbonic anhydrase 9 at 10^-8 M preincubated for 15 mins by stopped flow CO2 hydration method relative to control

[6] = molecular target: Carbonic anhydrase 12 (Homo sapiens) (UniProt O43570); conditions: at 1 µM
Description: Inhibition of human carbonic anhydrase 12 at 10^-6 M preincubated for 15 mins by stopped flow CO2 hydration method relative to control

[7] = molecular target: T1, Carbonic anhydrase 9; conditions: at 1 µM
Description: Inhibition of human carbonic anhydrase 9 at 10^-6 M preincubated for 15 mins by stopped flow CO2 hydration method relative to control

[8] = molecular target: Carbonic anhydrase 12 (Homo sapiens) (UniProt O43570); conditions: at 0.001 µM
Description: Inhibition of human carbonic anhydrase 12 at 10^-9 M preincubated for 15 mins by stopped flow CO2 hydration method relative to control

[9] = molecular target: T1, Carbonic anhydrase 9; conditions: at 0.1 µM
Description: Inhibition of human carbonic anhydrase 9 at 10^-7 M preincubated for 15 mins by stopped flow CO2 hydration method relative to control

[10] = molecular target: Carbonic anhydrase 1 (Homo sapiens, UniProt P00915); assay: Inhibition of human carbonic anhydrase 1 preincubated for 15 mins by stopped flow CO2 hydration method
Carbonic anhydrase 1, sequence (P00915 whole entry): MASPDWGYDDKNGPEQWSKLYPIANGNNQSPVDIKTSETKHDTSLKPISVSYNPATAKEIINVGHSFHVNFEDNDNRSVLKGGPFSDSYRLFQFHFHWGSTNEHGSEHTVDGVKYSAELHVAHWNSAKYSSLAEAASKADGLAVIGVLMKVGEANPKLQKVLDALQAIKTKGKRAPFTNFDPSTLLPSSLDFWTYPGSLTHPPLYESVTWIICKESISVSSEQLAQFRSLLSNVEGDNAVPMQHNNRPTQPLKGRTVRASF

Carbonic anhydrase 12 (Homo sapiens), sequence (O43570 whole entry): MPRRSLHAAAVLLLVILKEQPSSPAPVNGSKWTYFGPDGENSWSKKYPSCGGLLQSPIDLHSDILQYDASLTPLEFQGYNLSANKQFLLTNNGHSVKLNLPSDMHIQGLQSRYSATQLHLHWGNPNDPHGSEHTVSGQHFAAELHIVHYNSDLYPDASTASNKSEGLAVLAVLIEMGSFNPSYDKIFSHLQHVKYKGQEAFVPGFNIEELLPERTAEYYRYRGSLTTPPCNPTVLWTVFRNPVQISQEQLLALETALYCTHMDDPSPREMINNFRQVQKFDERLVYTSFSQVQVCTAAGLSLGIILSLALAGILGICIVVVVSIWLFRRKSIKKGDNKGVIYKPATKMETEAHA

| SMILES | Ki [1] | inhibition [2] | inhibition [3] | inhibition [4] | inhibition [5] | inhibition [6] | inhibition [7] | inhibition [8] | inhibition [9] | Ki [10] |
| --- | --- | --- | --- | --- | --- | --- | --- | --- | --- | --- |
| NS(=O)(=O)c1ccc(NC(=O)N2CCN(c3ccccc3)CC2)cc1 | 8.7 nM | – | – | – | – | – | – | – | – | – |
| COc1cccc(N2CCN(C(=O)Nc3ccc(S(N)(=O)=O)cc3)CC2)c1 | 39.6 nM | – | – | – | – | – | – | – | – | – |
| CC(C)(C)c1ccc(N2CCN(C(=O)Nc3ccc(S(N)(=O)=O)cc3)CC2)cc1 | 129 nM | – | – | – | – | – | – | – | – | – |
| NS(=O)(=O)c1ccc(NC(=O)N2CCN(c3ccccn3)CC2)cc1 | 487 nM | – | – | – | – | – | – | – | – | – |
| NS(=O)(=O)c1ccc(NC(=O)N2CCN(Cc3ccc(Cl)cc3)CC2)cc1 | 39.6 nM | – | – | – | – | – | – | – | – | – |
| N#Cc1cccnc1N1CCN(C(=O)Nc2ccc(S(N)(=O)=O)cc2)CC1 | 202 nM | – | – | – | – | – | – | – | – | – |
| NS(=O)(=O)c1ccc(NC(=O)N2CCN(C(=O)Cc3ccc(Cl)cc3)CC2)cc1 | – | 40% | 47% | 37% | 45% | 51% | 51% | 34% | 47% | – |
| NS(=O)(=O)c1ccc(NC(=O)N2CCN(C(=O)COc3ccccc3)CC2)cc1 | – | 46% | 49% | 22% | 35% | 51% | 55% | 36% | 53% | – |
| NS(=O)(=O)c1ccc(NC(=O)N2CCN(c3ccc(Cl)cc3)CC2)cc1 | 320 nM | – | – | – | – | – | – | – | – | > 10000 nM |
| COc1ccccc1N1CCN(C(=O)Nc2ccc(S(N)(=O)=O)cc2)CC1 | 237 nM | – | – | – | – | – | – | – | – | – |
| NS(=O)(=O)c1ccc(NC(=O)N2CCN(c3ncccc3C(F)(F)F)CC2)cc1 | 280 nM | – | – | – | – | – | – | – | – | – |
| COc1ccc(CC(=O)N2CCN(C(=O)Nc3ccc(S(N)(=O)=O)cc3)CC2)cc1 | – | 46% | 49% | 36% | 47% | 51% | 55% | 34% | 49% | – |
| NS(=O)(=O)c1ccc(NC(=O)N2CCN(C(=O)COc3ccc(Cl)cc3)CC2)cc1 | – | 47% | 49% | 36% | 47% | 52% | 52% | 30% | 48% | – |
| COc1ccc(N2CCN(C(=O)Nc3ccc(S(N)(=O)=O)cc3)CC2)cc1 | 409 nM | – | – | – | – | – | – | – | – | – |
| NS(=O)(=O)c1ccc(NC(=O)N2CCN(c3ccc(Cl)c(Cl)c3)CC2)cc1 | 268 nM | – | – | – | – | – | – | – | – | – |
| COc1cc(CC(=O)N2CCN(C(=O)Nc3ccc(S(N)(=O)=O)cc3)CC2)cc(OC)c1O | – | 45% | 49% | 37% | 41% | 51% | 55% | 34% | 52% | – |

The remaining lines, values ahead:

| Ki [1] | inhibition [2] | inhibition [3] | inhibition [4] | inhibition [5] | inhibition [6] | inhibition [7] | inhibition [8] | inhibition [9] | Ki [10] | SMILES |
| --- | --- | --- | --- | --- | --- | --- | --- | --- | --- | --- |
| – | 42% | 48% | 38% | 48% | 51% | 54% | 34% | 49% | – | NS(=O)(=O)c1ccc(NC(=O)N2CCN(C(=O)Cc3ccc(Cl)cc3Cl)CC2)cc1 |
| 514 nM | – | – | – | – | – | – | – | – | – | NS(=O)(=O)c1ccc(NC(=O)N2CCN(c3ccc(C(F)(F)F)cn3)CC2)cc1 |
| 233 nM | – | – | – | – | – | – | – | – | – | NS(=O)(=O)c1ccc(NC(=O)N2CCN(c3cccc(Cl)c3)CC2)cc1 |
| – | 44% | 47% | 38% | 44% | 51% | 54% | 26% | 49% | – | NS(=O)(=O)c1ccc(NC(=O)N2CCN(C(=O)Cc3ccccc3)CC2)cc1 |
| 462 nM | – | – | – | – | – | – | – | – | – | NS(=O)(=O)c1ccc(NC(=O)N2CCN(Cc3ccccc3)CC2)cc1 |
| 9.9 nM | – | – | – | – | – | – | – | – | – | NS(=O)(=O)c1ccc(NC(=O)N2CCN(c3ccc(F)cc3)CC2)cc1 |
| 134 nM | – | – | – | – | – | – | – | – | – | NS(=O)(=O)c1ccc(NC(=O)N2CCN(c3nccc(C(F)(F)F)n3)CC2)cc1 |
| – | 43% | 48% | 33% | 49% | 51% | 56% | 29% | 51% | – | NS(=O)(=O)c1ccc(NC(=O)N2CCN(C(=O)COc3ccc(Cl)cc3Cl)CC2)cc1 |
| – | 46% | 49% | 34% | 45% | 58% | 52% | 33% | 48% | – | NS(=O)(=O)c1ccc(NC(=O)N2CCN(C(=O)Cc3ccc(O)cc3)CC2)cc1 |
